Measured values reported in patent US9120749B2, “Quinoline derivatives and MELK inhibitors containing the same” (ONCOTHERAPY SCIENCE, INC., priority 2010, dated 2015).

Legend:
T47D cells = assay: Cell-based assay: anti-proliferative activity, Cell Counting Kit-8, 72 hours (T47D); settings: Homo sapiens, T47D, 72 h
Method: (§1) To evaluate the expression status of MELK in several cell lines, western blot analysis was performed using crude cell lysate collected from those cells. Anti-MELK antibody (clone 31, BD Biosciences) was used to visualize the expression.
(§2) Active candidate inhibitors against MELK were evaluated for their target-specific cytotoxicity using T47D, A549, BT-549, and HT-1197 cells was used for negative control. 100 micro-L of cell suspension was seeded onto 96-well microtiter plate (ViewPlate-96FTC, PerkinElmer). The initial cell concentration of T47D, A549, BT-549, and HT-1197 were 3,000 cells/well, 2,000 cells/well and 2,500 cells/well, respectively. Cellular growth was determined using Cell Counting Kit-8 (DOJINDO) at 72 hours after the exposure of the candidate inhibitors. […] Accurate IC50 values were calculated as described previously.

HT-1197 cells = assay: Cell-based assay: anti-proliferative activity, Cell Counting Kit-8, 72 hours (HT-1197, negative control without MELK expression); settings: Homo sapiens, HT1197, 72 h, HT1197 cells (negative control, no MELK expression), 72 hours
Method: as §1, §2

MELK = MELK (Homo sapiens, UniProt Q14680); assay: Kinase assay: MELK activity, phosphorylation of FITC-labeled histone H3 peptide measured by IMAP fluorescence polarization; format: biochemical; settings: 50 micro-M ATP, FITC-labeled histone H3 peptide substrate, IMAP fluorescence polarization; read-out: IC50 (μM) (kinase assay)
Method: MELK activity was determined in the presence or absence of compounds using fluorescein isothiocyanate-labeled (FITC-labeled) histone H3 peptide as a substrate. […] Test compounds were dissolved in DMSO at 12.5 mM and then serially diluted as the DMSO concentration in the assays to be 1%. […] The reaction was stopped by the addition of three fold assay volume of progressive binding solution. Following 0.5 hour incubation at room temperature, fluorescence polarization was measured by Wallac EnVision 2103 multilabel reader (PerkinElmer).

A549 cells = assay: Cell-based assay: anti-proliferative activity, Cell Counting Kit-8, 72 hours (A549); settings: Homo sapiens, A549, 72 h, 72 hours
Method: as §2, with “100” for “Active candidate inhibitors against MELK were evaluated for their target-specific cytotoxicity using T47D, A549, BT-549, and HT-1197 cells was used for negative control. 100”

Chain of MELK (Q14680 whole entry, looked up): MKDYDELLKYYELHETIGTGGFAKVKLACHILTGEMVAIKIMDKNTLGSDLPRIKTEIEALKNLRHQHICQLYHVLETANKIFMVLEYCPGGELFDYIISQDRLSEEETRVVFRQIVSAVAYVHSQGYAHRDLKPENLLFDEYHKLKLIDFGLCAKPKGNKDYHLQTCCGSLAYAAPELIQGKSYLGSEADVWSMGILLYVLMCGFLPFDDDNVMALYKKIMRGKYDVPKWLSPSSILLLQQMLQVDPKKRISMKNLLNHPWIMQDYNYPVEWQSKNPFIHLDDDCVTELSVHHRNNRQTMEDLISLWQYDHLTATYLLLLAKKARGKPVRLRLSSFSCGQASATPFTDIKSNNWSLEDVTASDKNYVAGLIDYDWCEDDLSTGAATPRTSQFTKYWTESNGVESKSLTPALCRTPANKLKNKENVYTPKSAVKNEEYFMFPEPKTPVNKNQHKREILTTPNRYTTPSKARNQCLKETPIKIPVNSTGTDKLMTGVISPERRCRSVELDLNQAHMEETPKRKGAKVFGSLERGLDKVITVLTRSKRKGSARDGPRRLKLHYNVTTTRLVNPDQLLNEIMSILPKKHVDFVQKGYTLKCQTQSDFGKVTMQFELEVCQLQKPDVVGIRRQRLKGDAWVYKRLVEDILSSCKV

SMILES	IC50 (T47D cells)	IC50 (HT-1197 cells)	IC50 (MELK)	IC50 (A549 cells)
O=C(c1cnc2ccc(-c3ccc(O)c(Cl)c3)cc2c1N1CCN(CCN2CCCC2)CC1)C1CC1 [Example 403, (6-(3-chloro-4-hydroxyphenyl)-4-(4-(2-(pyrrolidin-1-yl)ethyl)piperazin-1-yl)quinolin-3-yl)(cyclopropyl)methanone]	4.5 µM	10 µM	0.011 µM	1.3 µM
CC(=O)c1cnc2ccc(-c3cnc(C#N)nc3)cc2c1Nc1ccc(CN2CCCC2)cc1 [Example 413, 5-(3-acetyl-4-(4-(pyrrolidin-1-ylmethyl)phenylamino)quinolin-6-yl)pyrimidine-2-carbonitrile]	0.35 µM	1.2 µM	0.0029 µM	1.7 µM
COc1cc(-c2ccc3ncc(C(=O)C4CC4)c(-c4ccc(CN5CCCC5)cc4)c3c2)cc(Cl)c1O [Example 436, (6-(3-chloro-4-hydroxy-5-methoxyphenyl)-4-(4-(pyrrolidin-1-ylmethyl)phenyl)quinolin-3-yl)(cyclopropyl)methanone]	0.63 µM	4.9 µM	0.014 µM	0.63 µM
CN(C)CC(=O)N1CCN(c2c(C(=O)C3CC3)cnc3ccc(-c4ccc(O)c(Cl)c4)cc23)CC1 [Example 441, 1-(4-(6-(3-chloro-4-hydroxyphenyl)-3-(cyclopropanecarbonyl)quinolin-4-yl)piperazin-1-yl)-2-(dimethylamino)ethanone]	0.63 µM	46 µM	0.004 µM	0.54 µM
CN1CCN(C(=O)CNc2c(C(=O)C3CC3)cnc3ccc(-c4cc(F)c(O)c(Cl)c4)cc23)CC1 [Example 390, 2-(6-(3-chloro-5-fluoro-4-hydroxyphenyl)-3-(cyclopropanecarbonyl)quinolin-4-ylamino)-1-(4-methylpiperazin-1-yl)ethanone]	2 µM	10 µM	0.025 µM	2.7 µM
CN(C)CC(=O)N1CCN(c2c(C(=O)C3CC3)cnc3ccc(-c4cc(F)c(O)c(Cl)c4)cc23)CC1 [Example 442, 1-(4-(6-(3-chloro-5-fluoro-4-hydroxyphenyl)-3-(cyclopropanecarbonyl)quinolin-4-yl)piperazin-1-yl)-2-(dimethylamino)ethanone]	0.74 µM	5.5 µM	0.0035 µM	1.5 µM
COc1cc(-c2ccc3ncc(S(C)(=O)=O)c(N[C@H]4CC[C@H](CN(C)C)CC4)c3c2)cc(Cl)c1O [Example 422]	0.7 µM	4.4 µM	0.0041 µM	0.65 µM
CN(C)CC1CCN(c2c(C(=O)C3CCCC3)cnc3ccc(-c4ccc(O)c(Cl)c4)cc23)CC1 [Example 389, (6-(3-chloro-4-hydroxyphenyl)-4-(4-((dimethylamino)methyl)piperidin-1-yl)quinolin-3-yl)(cyclopentyl)methanone]	2.9 µM	6.9 µM	0.031 µM	1.7 µM
O=C(c1cnc2ccc(-c3cc(Cl)c(O)c(Cl)c3)cc2c1-c1ccc(CN2CCCC2)cc1)C1CC1 [Example 452]	0.55 µM	10 µM	0.0026 µM	1.6 µM
CN(C)Cc1ccc(Nc2c(C#N)cnc3ccc(-c4cc(F)c(O)c(Cl)c4)cc23)cc1 [Example 432, 6-(3-chloro-5-fluoro-4-hydroxyphenyl)-4-(4-((dimethylamino)methyl)phenylamino)quinoline-3-carbonitrile]	0.98 µM	4.9 µM	0.056 µM	1.1 µM
COc1cc(-c2ccc3ncc(C(=O)C4CC4)c(Nc4ccc(CN5CCN(C)CC5)cc4)c3c2)ccc1O [Example 405, cyclopropyl(6-(4-hydroxy-3-methoxyphenyl)-4-(4-((4-methylpiperazin-1-yl)methyl)phenylamino)quinolin-3-yl)methanone]	0.76 µM	3.5 µM	0.017 µM	0.8 µM
CN(C)Cc1ccc(-c2c(C(=O)C3CC3)cnc3ccc(-c4cc(Cl)c(O)c(Cl)c4)cc23)cc1 [Example 431, cyclopropyl(6-(3,5-dichloro-4-hydroxyphenyl)-4-(4-((dimethylamino)methyl)phenyl)quinolin-3-yl)methanone]	0.97 µM	7.5 µM	0.0039 µM	0.59 µM
COc1cc(-c2ccc3ncc(C(C)=O)c(Nc4ccc(CN(C)C)cc4)c3c2)cc(Cl)c1O [Example 391, 1-(6-(3-chloro-4-hydroxy-5-methoxyphenyl)-4-(4-((dimethylamino)methyl)phenylamino)quinolin-3-yl)ethanone]	0.12 µM	4.2 µM	0.0037 µM	1 µM
CS(=O)(=O)c1cnc2ccc(-c3ccc(O)c(Cl)c3)cc2c1N1CCC(CN2CCCC2)CC1 [Example 408, 2-chloro-4-(3-(methylsulfonyl)-4-(4-(pyrrolidin-1-ylmethyl)piperidin-1-yl)quinolin-6-yl)phenol]	8.2 µM	9.5 µM	0.009 µM	3.2 µM
COc1cc(-c2ccc3ncc(C(=O)C4CC4)c(Nc4ccc(CN(C)C)cn4)c3c2)cc(Cl)c1O [Example 429, (6-(3-chloro-4-hydroxy-5-methoxyphenyl)-4-(5-((dimethylamino)methyl)pyridin-2-ylamino)quinolin-3-yl)(cyclopropyl)methanone]	3.8 µM	19 µM	0.019 µM	5.1 µM
CN(C)CC(=O)N1CC2CC1CN2c1c(C(=O)C2CC2)cnc2ccc(-c3cc(F)c(O)c(Cl)c3)cc12 (stereo not drawn) [Example 455]	12 µM	60 µM	0.069 µM	37 µM
CN(C)CCNC(=O)c1ccc(-c2c(C(=O)C3CC3)cnc3ccc(-c4cc(Cl)c(O)c(Cl)c4)cc23)cc1 [Example 451]	0.68 µM	17 µM	0.0025 µM	3.8 µM
CN(C)CC1CCN(c2c(C(=O)C3CCCC3)cnc3ccc(-c4cc(F)c(O)c(Cl)c4)cc23)CC1 [Example 384, (6-(3-chloro-5-fluoro-4-hydroxyphenyl)-4-(4-((dimethylamino)methyl)piperidin-1-yl)quinolin-3-yl)(cyclopentyl)methanone]	2 µM	4 µM	0.0046 µM	1.9 µM
COc1cc(-c2ccc3ncc(S(C)(=O)=O)c(Nc4ccc(CN(C)C)cc4)c3c2)cc(Cl)c1O [Example 410, 2-chloro-4-(4-(4-((dimethylamino)methyl)phenylamino)-3-(methylsulfonyl)quinolin-6-yl)-6-methoxyphenol]	0.58 µM	6.2 µM	0.0068 µM	1.2 µM
CN(C)CC1CCN(c2c(C(=O)C3CC3)cnc3ccc(-c4ccc(O)c(C(F)(F)F)c4)cc23)CC1 [Example 454]	4 µM	5.3 µM	0.014 µM	1.3 µM
CS(=O)(=O)c1cnc2ccc(-c3cc(F)c(O)c(Cl)c3)cc2c1N1CCC(CN2CCCC2)CC1 [Example 407, 2-chloro-6-fluoro-4-(3-(methylsulfonyl)-4-(4-(pyrrolidin-1-ylmethyl)piperidin-1-yl)quinolin-6-yl)phenol]	0.75 µM	6.5 µM	0.0051 µM	3.8 µM
CN(C)C[C@H]1CC[C@H](Nc2c(S(C)(=O)=O)cnc3ccc(-c4ccc(O)c(Cl)c4)cc23)CC1 [Example 424]	0.43 µM	1.1 µM	0.013 µM	0.79 µM
O=C(c1cnc2ccc(-c3cc(Cl)c(O)c(Cl)c3)cc2c1-c1ccc(N2CCNCC2)nc1)C1CC1 [Example 459]	0.83 µM	10 µM	0.0091 µM	1.9 µM
CCN(CC)C1CCC(Nc2c(C(=O)C3CCCC3)cnc3ccc(-c4ccc(O)c(Cl)c4)cc23)CC1 (stereo not drawn) [Example 385, (6-(3-chloro-4-hydroxyphenyl)-4-(4-(diethylamino)cyclohexylamino)quinolin-3-yl)(cyclopentyl)methanone]	1.7 µM	1.9 µM	0.019 µM	0.94 µM
CN(C)CC1CCN(c2c(C(=O)C3CC3)cnc3ccc(-c4ccc5[nH]ccc5c4)cc23)CC1 [Example 453]	1.2 µM	2.3 µM	0.094 µM	0.48 µM
CN1CCCC1c1ccc(Nc2c(C(=O)C3CC3)cnc3ccc(-c4cc(Cl)c(O)c(Cl)c4)cc23)nc1 (stereo not drawn) [Example 445]	7.5 µM	10 µM	0.022 µM	4.1 µM
CN(C)C[C@H]1CC[C@H](Nc2c(C(=O)C3CC3)cnc3ccc(-c4cnc(C#N)nc4)cc23)CC1 [Example 426]	0.43 µM	3.7 µM	0.0025 µM	1.5 µM
